Results from article PMC12629158, “Cytotoxic Activity of Opopanax hispidus (Friv.) Griseb.: Characterization of a New Chalcone‐type Compound” (Chemistry & Biodiversity, 2025).
Values after ≈ are worked out from the molar mass of the structure shown. “Also recorded” adds a separate entry of the source. Like-named read-outs stand apart in the source and are kept apart here.

Legend:
MCF‐7 cells = tested on: MCF‐7 cells; parameters: method as in earlier work; conditions: isolated from Sansevieria cylindrica; cited from earlier work
A549 [1] = assay: MTT cytotoxicity assay, A549; type: cell-based, human; conditions: for antiproliferative effect of isolated compounds (in words): A549 lung cancer cells, tested concentrations 0.5–50 µM; for IC50: Homo sapiens, A549, 48 h, MTT, 48 h, read-out: IC50 ± SEM, A549
Experimental: (§1) Adenocarcinomic human alveolar basal epithelial cell line (A549), human cervical cancer cell line (HeLa), human breast cancer cell line (MCF‐7), human hepatocellular carcinoma cell line (HepG2), and human bronchial epithelial cell line (BEAS‐2B) were used for the cytotoxicity test panel of crude extract. […] Therefore, A549 was used in further activity‐guided fractionation and isolation studies. The cell lines were cultured in Dulbecco's Modified Eagle Medium (DMEM) supplemented with 10% fetal bovine serum (FBS), 1% L‐glutamine, and 1% penicillin‐streptomycin. Cells were maintained in an incubator at 37°C under 5% CO2.
(§2) MTT assay was used to determine the cytotoxic activity of the crude extract, subextracts, main fractions, and isolated compounds. MTT assay, called the “gold standard” of cell viability tests, is based on measuring metabolic activity. The cells reaching sufficient confluence were counted and plated in 96‐well plates (6 × 10^3 cells/well). After 24 h, cells were treated with five concentrations of the extracts (1–100 µg/mL), main fractions (1–100 µg/mL), or pure compounds (0.5–50 µM) in DMSO. Doxorubicin (10/3/1/0.3 µM) was used as a positive control. The plates were incubated with test materials for 48 h. After treatment, the supernatant was removed, and fresh medium and MTT solution (1 g/L in PBS) were added to each well. The cells were incubated for three h at 37°C. The resulting formazan crystals were dissolved in DMSO, and finally, the absorbance was detected at 570 nm using a spectrophotometer (SpectraMax i3x; Molecular Devices, San Jose, CA, USA). All data were collected from three independent experiments, and at least n = 6 data points were obtained. IC50 values were calculated as µg/mL for extracts or fractions and as µM for pure compounds.

Beas‐2B = assay: MTT cytotoxicity assay, Beas‐2B healthy cell line; type: cell-based, human; conditions: for IC50: Homo sapiens, BEAS-2B, 48 h, MTT, read-out: IC50 ± SEM, Beas‐2B
Experimental: as §1, §2

A549 [2] = assay: Selectivity index (IC50 non‐cancerous cells / IC50 cancerous cells); type: cell-based, human; conditions: IC50 Beas‐2B / IC50 A549
Experimental: The selectivity index (SI), which indicates the selectivity between cancer and normal cells, was calculated. The compounds with an SI greater than 1 are more likely to inhibit cancer cells than non‐cancerous cells. SI values were calculated by the formula of [(IC50 values of non‐cancerous cells)/(IC50 values of cancerous cells)].

[3] = isolated compounds 0.5–50 µM (Table 4)
[4] = doxorubicin positive control (Table 2 footnote)
[5] = doxorubicin positive control (Table 3 footnote)

SMILES | antiproliferative effect of isolated compounds (in words) (A549 [1]) | IC50 (A549 [1]; [3]) [nM] | IC50 (Beas‐2B; [3]) [nM] | other results
COc1c(O)ccc(C(=O)C(CO)Cc2ccc3c(c2)OCO3)c1O (stereo not shown) [2′,4′‐dihydroxy‐3′‐methoxy‐3,4‐methylenedioxy‐8‐hydroxymethylene dihydrochalcone] |  |  |  | IC50, cytotoxic effect against MCF‐7 cells (MCF‐7 cells): 34 µg/mL (≈ 98.2 µM)
O=C(O)c1cc2ccc(=O)oc2cc1O [Compound 1, umbelliferone 6‐carboxylic acid] | did not show an antiproliferative effect; also recorded: did not show antiproliferative activity | > 50000 | > 50000 | 
O=c1ccc2ccc(O)cc2o1 [Compound 2, umbelliferone] | did not show an antiproliferative effect; also recorded: did not show antiproliferative activity | > 50000 | > 50000 | 
COc1cc(O)c(C(=O)C[C@H](O)c2ccc(O)c(CC=C(C)C)c2)c(O)c1 [Compound 3, 2',6'‐dihydroxy‐4'‐methoxy‐3''‐(ɤ,ɤ‐dimethylallyl)‐4''‐hydroxy β‐hydroxydihydrochalcone] | significant activity | 13700 ± 800 | 12000 ± 1500 | cytotoxicity against normal cells compared with doxorubicin (in words) (Beas‐2B; normal cells (Beas‐2B)): lower cytotoxicity against normal cells than doxorubicin; SI (selectivity index) (A549 [2]; Table 4): 0.87
CC(C)(O)[C@H]1Cc2cc3ccc(=O)oc3cc2O1 [Compound 4, nodakenetin] | did not show an antiproliferative effect; also recorded: did not show antiproliferative activity | > 50000 | > 50000 | 
COc1cccc2c1C(=O)c1c(O)c3c(c(O)c1C2=O)C[C@@](O)(C(=O)CO)C[C@@H]3O[C@H]1C[C@H](N)[C@H](O)[C@H](C)O1 [Dox, doxorubicin, reference compound] |  | 590 ± 50 | 70 ± 17 | IC50 (A549 [1]; [4]): 820 ± 130 nM; IC50 (A549 [1]; [5]): 590 ± 50 nM; IC50 (Beas‐2B; [4]): 340 ± 20 nM; IC50 (Beas‐2B; [5]): 70 ± 17 nM; SI (selectivity index) (A549 [2]; Table 3): 0.12
